Measurements: patent US20250176542A1, “Antibacterial Composition” (LG Chem, Ltd., priority 2022, published 2025)

Legend:
E. coli bacteria = assay: Bacterial proliferation inhibition rate measurement (Method 1); type: cell-based; conditions: 0.04 g in 20 mL nutrient broth inoculated with 3,000±300 CFU/mL, 37° C., 24 hours, absorbance at 600 nm
Protocol: After 0.04 g of the antibacterial composition is added to 20 mL of a nutrient broth culture solution inoculated with 3,000±300CFU/mL of bacterial strain, from the culture solution of an experimental group in which the resulting mixture is incubated at 37° C. in a shaking incubator for 24 hours, the absorbance at a wavelength of 600 nm is measured using a UV/Vis spectrophotometer, • the antibacterial composition is not added to 20 mL of a nutrient broth culture solution inoculated with 3,000±300CFU/mL of bacterial strain, from the culture solution of a control in which the nutrient broth culture solution is incubated at 37° C. for 24 hours, the absorbance at a wavelength of 600 nm is measured using a UV/Vis spectrophotometer, and • from the absorbance of the experimental group and the absorbance of the control group, the bacterial proliferation inhibition rate (%) of the test bacteria is calculated using the following Equation 1.
In the present experiment, the bacterial proliferation inhibition rate was measured according to the following Method 1. In this case, E. coli bacteria were used.

[1] = Primary thermal decomposition measurement (thermogravimetric analyzer); type: physicochemical; conditions: N2 atmospheric environment, extrapolated onset of first mass reduction section
Excerpt: The primary thermal decomposition temperature may be defined as an extrapolated intersection point between a starting mass reference line and the tangent line of the maximum slope point in the first mass reduction section of a mass loss curve measured by a thermogravimetric analyzer in an N2 atmospheric environment.
A thermogravimetric analyzer (TGA2 manufactured by Mettler Toledo) was used in order to perform an experiment on the primary thermal decomposition temperature of the antibacterial compositions of Examples 1 to 13 and Comparative Example 1.
In the present experiment, the primary thermal decomposition temperature may be defined as an extrapolated intersection point between a starting mass reference line and the tangent line of the maximum slope point in the first mass reduction section of a mass loss curve measured by a thermogravimetric analyzer in an N2 atmospheric environment. In the present disclosure, it was determined that when the primary thermal decomposition temperature of the antibacterial composition has a value higher than the primary thermal decomposition temperature of the material before anion substitution, the heat resistance has increased.

| SMILES | Bacterial proliferation inhibition rate (E. coli bacteria) [%] | Primary thermal decomposition temperature [1] [°C] |
| --- | --- | --- |
| C=Cc1ccc(C[N+](C)(C)CCCCCCCCCCCC)cc1.[Cl-] [Comparative Example 1] | 96.3 | – |
| C=Cc1ccc(C[N+](C)(C)CCCCCCCCCCCC)cc1.O=S(=O)([O-])C(F)(F)F [Example 1] | – | 369 |
